The target of the experiment is T1, glucagon receptor (Homo sapiens, UniProt P47871).
T1 construct: expressed in transfected cells
Put plainly: Assay (I) Glucagon activity (cAMP biosensor, FLIPR). The class given is cell-based.

Numbered stars: 1 amine (or outer) side, 2 acyl side, 3 side chain; on linkers, the order of the positions; unused ones are H or OH. Side chains are listed from the residue outwards. Peptide text beside a SMILES is read from it. * marks the point of attachment. C18 diacid = O=C(O)CCCCCCCCCCCCCCCCC(=O)*; γGlu = O=C(O)[C@H](CCC(=O)[*:2])N[*:1]; AEEA = NCCOCCOCC(=O)O

T1 sequence (P47871 26-477): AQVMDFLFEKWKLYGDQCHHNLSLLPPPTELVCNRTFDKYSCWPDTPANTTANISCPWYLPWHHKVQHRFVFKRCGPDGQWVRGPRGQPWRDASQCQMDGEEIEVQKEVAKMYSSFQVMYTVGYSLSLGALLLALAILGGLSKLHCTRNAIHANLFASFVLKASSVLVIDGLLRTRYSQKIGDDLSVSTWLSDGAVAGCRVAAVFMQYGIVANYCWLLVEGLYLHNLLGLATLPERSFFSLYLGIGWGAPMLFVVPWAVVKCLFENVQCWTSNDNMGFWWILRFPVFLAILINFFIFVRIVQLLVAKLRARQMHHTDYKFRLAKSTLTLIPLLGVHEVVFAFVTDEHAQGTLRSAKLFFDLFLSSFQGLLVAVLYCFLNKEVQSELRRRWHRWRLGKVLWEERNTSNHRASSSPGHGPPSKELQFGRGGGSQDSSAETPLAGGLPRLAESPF

Consider `CC[C@H](C)[C@H](NC(=O)[C@H](CC(=O)O)NC(=O)[C@H](CC(C)C)NC(=O)[C@H](Cc1ccc(O)cc1)NC(=O)[C@H](CCCCN)NC(=O)[C@H](CO)NC(=O)[C@H](Cc1ccc(O)cc1)NC(=O)[C@H](CC(=O)O)NC(=O)[C@H](CO)NC(=O)[C@@H](NC(=O)[C@H](Cc1ccccc1)NC(=O)[C@@H](NC(=O)CNC(=O)[C@H](CCC(N)=O)NC(=O)[C@H](CO)NC(=O)[C@@H](N)Cc1c[nH]cn1)[C@@H](C)O)[C@@H](C)O)C(=O)N[C@@H](CCCNC(=N)N)C(=O)N[C@@H](CCCNC(=N)N)C(=O)N[C@@H](C)C(=O)N[C@@H](CCC(N)=O)C(=O)N[C@@H](CC(=O)O)C(=O)N[C@@H](Cc1ccccc1)C(=O)N[C@H](C(=O)N[C@@H](CCCCNC(=O)CC[C@H](NC(=O)CC[C@H](NC(=O)COCCOCCNC(=O)COCCOCCNC(=O)CC[C@H](NC(=O)CCCCCCCCCCCCCCCCC(=O)O)C(=O)O)C(=O)O)C(=O)O)C(=O)N[C@@H](Cc1c[nH]c2ccccc12)C(=O)N[C@@H](CC(C)C)C(=O)N[C@@H](CC(C)C)C(=O)N[C@@H](CC(N)=O)C(=O)N[C@H](C(=O)O)[C@@H](C)O)C(C)C` [Example 8, N^ε24-[(4S)-4-carboxy-4-[[(4S)-4-carboxy-4-[[2-[2-[2-[[2-[2-[2-[[(4S)-4-carboxy-4-(17-carboxyheptadecanoylamino)butanoyl]amino]ethoxy]ethoxy]acetyl]amino]ethoxy]ethoxy]acetyl]amino]butanoyl]amino]butanoyl]-[Ile^16,Lys^24,Leu^27]-Glucagon], for which the midpoint of the response, the EC50, lay at 81 pM.

In the case of `CC(C)C[C@H](NC(=O)[C@H](Cc1c[nH]c2ccccc12)NC(=O)[C@H](CCCCNC(=O)CC[C@H](NC(=O)COCCOCCNC(=O)COCCOCCNC(=O)CC[C@H](NC(=O)CCCCCCCCCCCCCCCCC(=O)O)C(=O)O)C(=O)O)NC(=O)[C@@H](NC(=O)[C@H](Cc1ccccc1)NC(=O)[C@H](CCC(=O)O)NC(=O)[C@H](CCC(N)=O)NC(=O)[C@H](C)NC(=O)[C@H](CCCNC(=N)N)NC(=O)[C@H](CCCNC(=N)N)NC(=O)[C@@H](NC(=O)[C@H](CC(=O)O)NC(=O)[C@H](CC(C)C)NC(=O)[C@H](Cc1ccc(O)cc1)NC(=O)[C@H](CCCCN)NC(=O)[C@H](CO)NC(=O)[C@H](Cc1ccc(O)cc1)NC(=O)[C@H](CC(=O)O)NC(=O)[C@H](CO)NC(=O)[C@@H](NC(=O)[C@H](Cc1ccccc1)NC(=O)[C@@H](NC(=O)CNC(=O)[C@H](CCC(N)=O)NC(=O)[C@H](CO)NC(=O)[C@@H](N)Cc1c[nH]cn1)[C@@H](C)O)[C@@H](C)O)[C@@H](C)O)C(C)C)C(=O)N[C@@H](CC(C)C)C(=O)N[C@@H](CC(N)=O)C(=O)N[C@H](C(=O)O)C(C)C` [Example 36, N^ε24-[(4S)-4-carboxy-4-[[2-[2-[2-[[2-[2-[2-[[(4S)-4-carboxy-4-(17-carboxyheptadecanoylamino)butanoyl]amino]ethoxy]ethoxy]acetyl]amino]ethoxy]ethoxy]acetyl]amino]butanoyl]-[Thr16,Glu21,Lys24,Leu27,Val29]-Glucagon] (H-HSQGTFTSDYSKYLDTRRAQEFVK([γGlu-AEEA-AEEA-γGlu-C18 diacid])WLLNV-OH), a half-maximal response (EC50) required 120 pM.
